From US10167262B2, “Herbicidal substituted 3-arylpyrazoles” (FMC CORPORATION, priority 2014, dated 2019)

Experiments:
Assay type in all cases: in vivo
[1] = test system: Italian ryegrass (Lolium multiflorum); test: Test C pre-/postemergence greenhouse test, plant response rating 0-100; conditions: Postemergence
How it was run: (§1)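 Plants were scored visually against controls 13–15 days after treatment on a 0–100 scale, 100 meaning complete control. Test chemicals, formulated in surfactant-containing non-phytotoxic solvent, went preemergence onto seeds in loam–sand blend or postemergence onto 1- to 4-leaf plants (2–18 cm) grown in peat-based mix.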

[2] = test system: blackgrass (Alopecurus myosuroides); test: as above; conditions: Postemergence
How it was run: as §1

corn (Zea mays) = test: as above; conditions: Postemergence
How it was run: as §1

[3] = test system: galium (catchweed bedstraw, Galium aparine); test: as above; conditions: Postemergence
How it was run: as §1

[4] = test system: lambsquarters (Chenopodium album); test: as above; conditions: Postemergence
How it was run: as §1

[5] = test system: large (Lg) crabgrass (Digitaria sanguinalis); test: as above; conditions: Postemergence
How it was run: as §1

[6] = test system: morningglory (Ipomoea coccinea); test: as above; conditions: Postemergence
How it was run: as §1

[7] = test system: pigweed (Amaranthus retroflexus); test: as above; conditions: Postemergence
How it was run: as §1

[8] = test system: ragweed (common ragweed, Ambrosia elatior); test: as above; conditions: Postemergence
How it was run: as §1

soybean (Glycine max) = test: as above; conditions: Postemergence
How it was run: as §1

[9] = test system: velvetleaf (Abutilon theophrasti); test: as above; conditions: Postemergence
How it was run: as §1

[10] = test system: yellow nutsedge (Cyperus esculentus); test: as above; conditions: Postemergence
How it was run: as §1

[11] = test system: bermudagrass (Cynodon dactylon); test: Test C postemergence greenhouse test, plant response rating 0-100
How it was run: (§2)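 Plants rated visually 0 (no effect) to 100 (complete control) against untreated controls after 13 to 15 days in the greenhouse, dash indicating no result. Treatment was a postemergence application of formulated chemicals at the 1- to 4-leaf stage (2 to 18 cm), in pots of peat-vermiculite medium.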

[12] = test system: goosegrass (Eleusine indica); test: as above
How it was run: as §2

## CCn1cc(C(=NN2CCCC2)c2ccccc2)c(-c2cc(Cl)cc(Cl)c2)n1 [Compound 37]
[1]; 62 g ai/ha
  Plant response rating (0 to 100), Ryegrass, Italian: 0
[1]; 125 g ai/ha
  Plant response rating (0 to 100), Ryegrass, Italian: 0
[1]; 250 g ai/ha, scale 0 to 100
  Plant response rating, Ryegrass, Italian: 0
[2]; 31 g ai/ha
  Plant response rating (0 to 100), Blackgrass: 0
[2]; 62 g ai/ha
  Plant response rating (0 to 100), Blackgrass: 0
[2]; 125 g ai/ha
  Plant response rating (0 to 100), Blackgrass: 0
[2]; 250 g ai/ha, scale 0 to 100
  Plant response rating, Blackgrass: 0
Corn (Zea mays); 31 g ai/ha
  Plant response rating (0 to 100), Corn: 0
Corn (Zea mays); 62 g ai/ha
  Plant response rating (0 to 100), Corn: 0
Corn (Zea mays); 125 g ai/ha
  Plant response rating (0 to 100), Corn: 5
Corn (Zea mays); 250 g ai/ha, scale 0 to 100
  Plant response rating, Corn: 5
[3]; 31 g ai/ha
  Plant response rating (0 to 100), Galium: 0
[3]; 62 g ai/ha
  Plant response rating (0 to 100), Galium: 0
[3]; 125 g ai/ha
  Plant response rating (0 to 100), Galium: 0
[3]; 250 g ai/ha, scale 0 to 100
  Plant response rating, Galium: 0
[4]; 62 g ai/ha
  Plant response rating (0 to 100), Lambsquarters: 45
[4]; 125 g ai/ha
  Plant response rating (0 to 100), Lambsquarters: 55
[4]; 250 g ai/ha, scale 0 to 100
  Plant response rating, Lambsquarters: 65
[5]; 31 g ai/ha
  Plant response rating (0 to 100), Crabgrass, Large: 10
[5]; 62 g ai/ha
  Plant response rating (0 to 100), Crabgrass, Large: 10
[5]; 125 g ai/ha
  Plant response rating (0 to 100), Crabgrass, Large: 10
[5]; 250 g ai/ha, scale 0 to 100
  Plant response rating, Crabgrass, Large: 10
[6]; 62 g ai/ha
  Plant response rating (0 to 100), Morningglory: 0
[6]; 125 g ai/ha
  Plant response rating (0 to 100), Morningglory: 0
[6]; 250 g ai/ha, scale 0 to 100
  Plant response rating, Morningglory: 0
[7]; 62 g ai/ha
  Plant response rating (0 to 100), Pigweed: 75
[7]; 125 g ai/ha
  Plant response rating (0 to 100), Pigweed: 80
[7]; 250 g ai/ha, scale 0 to 100
  Plant response rating, Pigweed: 100
[8]; 62 g ai/ha
  Plant response rating (0 to 100), Ragweed: 5
[8]; 125 g ai/ha
  Plant response rating (0 to 100), Ragweed: 5
[8]; 250 g ai/ha, scale 0 to 100
  Plant response rating, Ragweed: 20
Soybean (Glycine max); 62 g ai/ha
  Plant response rating (0 to 100), Soybean: 5
Soybean (Glycine max); 125 g ai/ha
  Plant response rating (0 to 100), Soybean: 5
Soybean (Glycine max); 250 g ai/ha, scale 0 to 100
  Plant response rating, Soybean: 5
[9]; 62 g ai/ha
  Plant response rating (0 to 100), Velvetleaf: 75
[9]; 125 g ai/ha
  Plant response rating (0 to 100), Velvetleaf: 80
[9]; 250 g ai/ha, scale 0 to 100
  Plant response rating, Velvetleaf: 98
[10]; 62 g ai/ha
  Plant response rating (0 to 100), Nutsedge, Yellow: 10
[10]; 125 g ai/ha
  Plant response rating (0 to 100), Nutsedge, Yellow: 10
[10]; 250 g ai/ha, scale 0 to 100
  Plant response rating, Nutsedge, Yellow: 10
[11]; 31 g ai/ha
  Plant response rating (0 to 100), Bermudagrass: 0
[11]; 62 g ai/ha
  Plant response rating (0 to 100), Bermudagrass: 0
[11]; 125 g ai/ha
  Plant response rating (0 to 100), Bermudagrass: 0
[11]; 250 g ai/ha, scale 0 to 100
  Plant response rating, Bermudagrass: 0
[12]; 31 g ai/ha
  Plant response rating (0 to 100), Goosegrass: 0
[12]; 62 g ai/ha
  Plant response rating (0 to 100), Goosegrass: 0
[12]; 125 g ai/ha
  Plant response rating (0 to 100), Goosegrass: 0
[12]; 250 g ai/ha, scale 0 to 100
  Plant response rating, Goosegrass: 0
